These results are taken from patent publication US20240239752A1, “BICYCLIC HETEROAROMATIC INHIBITORS OF KLK5” (BioCryst Pharmaceuticals, Inc., priority 2021, published 2024).

This assay deals with T1, recombinant human KLK5 (Homo sapiens, UniProt Q9Y337).
T1 construct: purchased Novoprotein or R&D Systems C415 or 1108-SE
T1 sequence (Q9Y337 23-293): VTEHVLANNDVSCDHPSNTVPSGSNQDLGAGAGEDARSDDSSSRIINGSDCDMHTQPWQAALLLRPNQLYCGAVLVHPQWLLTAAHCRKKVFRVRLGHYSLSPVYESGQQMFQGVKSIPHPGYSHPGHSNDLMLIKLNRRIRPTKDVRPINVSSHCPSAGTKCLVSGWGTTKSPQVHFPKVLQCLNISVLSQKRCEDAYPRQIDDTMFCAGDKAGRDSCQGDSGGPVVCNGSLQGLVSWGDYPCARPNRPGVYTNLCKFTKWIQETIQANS
The assay is described as follows: Kallikrein (KLK) 5 enzymatic assay (Boc-VPR-AMC fluorogenic substrate). Conditions: recombinant human KLK5 0.1 μg/well, Boc-VPR-AMC 100 μM, pH 7.5, room temperature, 1% DMSO; tested a minimum of three times. It is filed as biochemical. Summed up: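 Recombinant human KLK5 (0.1 μg/well) was preincubated with compound at room temperature in 0.1 M NaH2PO4, pH 7.5, 1% DMSO, then started with 100 μM Boc-VPR-AMC. The rate was followed at 380/460 nm, and IC50 came from percent inhibition relative to enzyme alone, with at least three runs.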

A value given as a limit tells only on which side of the number the result lay.

Turning to `COc1c(-c2ccc3c(c2)c(COc2ccccc2CC(=O)O)nn3C2CCCC2)ccnc1CN` [Compound 327d, 2-(2-((5-(2-(aminomethyl)-3-methoxypyridin-4-yl)-1-cyclopentyl-1H-indazol-3-yl)methoxy)phenyl)acetic acid], the IC50 is less than 1000 nM. The figure for `COc1c(-c2ccc3c(c2)c(COc2ccccc2CC(=O)O)nn3C2CCC2)ccnc1CN` [Compound 328d, 2-(2-((5-(2-(aminomethyl)-3-methoxypyridin-4-yl)-1-cyclobutyl-1H-indazol-3-yl)methoxy)phenyl)acetic acid] is 1000 to 10000 nM; for `COc1c(-c2cc3c(COc4ccccc4CC(=O)O)cccc3o2)ccnc1CN` [Compound 329d, 2-(2-((2-(2-(aminomethyl)-3-methoxypyridin-4-yl)benzofuran-4-yl)methoxy)phenyl)acetic acid] it is 1000 to 10000 nM. The figure for `CCOC(=O)N1CC[C@@H](n2nc(COc3ccccc3CC(=O)O)c3cc(-c4cccc5c(N)nccc45)ccc32)C1` [Compound 340i, (R)-2-(2-((5-(1-aminoisoquinolin-5-yl)-1-(1-(ethoxycarbonyl)pyrrolidin-3-yl)-1H-indazol-3-yl)methoxy)phenyl)acetic acid] is less than 1000 nM; for `CCOC(=O)N1CC[C@@H](n2nc(COc3cccc(C)c3CC(=O)O)c3cc(-c4cccc5c(N)nccc45)ccc32)C1` [Compound 341e, (R)-2-(2-((5-(1-aminoisoquinolin-5-yl)-1-(1-(ethoxycarbonyl)pyrrolidin-3-yl)-1H-indazol-3-yl)methoxy)-6-methylphenyl)acetic acid] it is less than 1000 nM. `CCOC(=O)N1CC[C@@H](n2nc(COc3ccccc3CC(=O)O)c3cc(-c4ccc5ccnc(N)c5c4)ccc32)C1` [Compound 342b, (R)-2-(2-((5-(1-aminoisoquinolin-7-yl)-1-(1-(ethoxycarbonyl)pyrrolidin-3-yl)-1H-indazol-3-yl)methoxy)phenyl)acetic acid]: the IC50 is less than 1000 nM. Under `CCOC(=O)N1CC[C@H](n2nc(COc3cccc(C)c3CC(=O)O)c3cc(-c4ccc5ccnc(N)c5c4)ccc32)C1` [Compound 343i, (S)-2-(2-((5-(1-aminoisoquinolin-7-yl)-1-(1-(ethoxycarbonyl)pyrrolidin-3-yl)-1H-indazol-3-yl)methoxy)-6-methylphenyl)acetic acid] stands less than 1000 nM; under `CCOC(=O)N1CC[C@H](n2nc(COc3cccc(C)c3CC(=O)O)c3cc(-c4cccc5c(N)nccc45)ccc32)C1` [Compound 344b, (S)-2-(2-((5-(1-aminoisoquinolin-5-yl)-1-(1-(ethoxycarbonyl)pyrrolidin-3-yl)-1H-indazol-3-yl)methoxy)-6-methylphenyl)acetic acid], less than 1000 nM. Under `CCOC(=O)N1CC[C@H](n2nc(COc3ccccc3CC(=O)O)c3cc(-c4cccc5c(N)nccc45)ccc32)C1` [Compound 345e, (S)-2-(2-((5-(1-aminoisoquinolin-5-yl)-1-(1-(ethoxycarbonyl)pyrrolidin-3-yl)-1H-indazol-3-yl)methoxy)phenyl)acetic acid] stands less than 1000 nM; under `CCOC(=O)N1CC[C@H](n2nc(COc3ccccc3CC(=O)O)c3cc(-c4ccc5ccnc(N)c5c4)ccc32)C1` [Compound 346b, (S)-2-(2-((5-(1-aminoisoquinolin-7-yl)-1-(1-(ethoxycarbonyl)pyrrolidin-3-yl)-1H-indazol-3-yl)methoxy)phenyl)acetic acid], less than 1000 nM. The figure for `CC(C)(C)OC(=O)N1CCC2(CC1)CC(Oc1ccccc1CC(=O)O)c1cc(-c3cccc4c(N)nccc34)ccc12` (stereo not drawn) [Compound 347d, 2-(2-((5-(1-aminoisoquinolin-5-yl)-1′-(tert-butoxycarbonyl)-2,3-dihydrospiro[indene-1,4′-piperidin]-3-yl)oxy)phenyl)acetic acid] is less than 1000 nM; for `CC(C)(C)OC(=O)N1CCC2(CC1)CC(Oc1ccccc1CC(=O)O)c1cc(-c3ccc4ccnc(N)c4c3)ccc12` (stereo not drawn) [Compound 348b, 2-(2-((5-(1-aminoisoquinolin-7-yl)-1′-(tert-butoxycarbonyl)-2,3-dihydrospiro[indene-1,4′-piperidin]-3-yl)oxy)phenyl)acetic acid] it is less than 1000 nM; for `CCOC(=O)N1CCC2(CC1)CC(Oc1ccccc1CC(=O)O)c1cc(-c3ccc4ccnc(N)c4c3)ccc12` (stereo not drawn) [Compound 349d, 2-(2-((5-(1-aminoisoquinolin-7-yl)-1′-(ethoxycarbonyl)-2,3-dihydrospiro[indene-1,4′-piperidin]-3-yl)oxy)phenyl)acetic acid] it is less than 1000 nM. `Nc1nccc2ccc(-c3ccc4c(c3)C(Oc3ccccc3CC(=O)O)CC43CCOCC3)cc12` (stereo not drawn) [Compound 350h, 2-(2-((5-(1-aminoisoquinolin-7-yl)-2,2′,3,3′,5′,6′-hexahydrospiro[indene-1,4′-pyran]-3-yl)oxy)phenyl)acetic acid]: the IC50 is less than 1000 nM.

On to `Nc1nccc2c(-c3ccc4c(c3)C(Oc3ccccc3CC(=O)O)CC43CCOCC3)cccc12` (stereo not drawn) [Compound 351b, 2-(2-((5-(1-aminoisoquinolin-5-yl)-2,2′,3,3′,5′,6′-hexahydrospiro[indene-1,4′-pyran]-3-yl)oxy)phenyl)acetic acid], for which the IC50 was less than 1000 nM. The figure for `Cc1cccc(OC2CC3(CCOCC3)c3ccc(-c4ccc5ccnc(N)c5c4)cc32)c1CC(=O)O` (stereo not drawn) [Compound 352c, 2-(2-((5-(1-aminoisoquinolin-7-yl)-2,2′,3,3′,5′,6′-hexahydrospiro[indene-1,4′-pyran]-3-yl)oxy)-6-methylphenyl)acetic acid] is less than 1000 nM; for `Cc1cccc(OC2CC3(CCOCC3)c3ccc(-c4cccc5c(N)nccc45)cc32)c1CC(=O)O` (stereo not drawn) [Compound 353b, 2-(2-((5-(1-aminoisoquinolin-5-yl)-2,2′,3,3′,5′,6′-hexahydrospiro[indene-1,4′-pyran]-3-yl)oxy)-6-methylphenyl)acetic acid] it is less than 1000 nM. The figure for `Nc1nccc2c(-c3ccc4c(c3)C(Oc3ccccc3CC(=O)O)CC43CCCC3)cccc12` (stereo not drawn) [Compound 354f, 2-(2-((5′-(1-aminoisoquinolin-5-yl)-2′,3′-dihydrospiro[cyclopentane-1,1′-inden]-3′-yl)oxy)phenyl)acetic acid] is less than 1000 nM. Under `Nc1nccc2ccc(-c3ccc4c(c3)C(Oc3ccccc3CC(=O)O)CC43CCCC3)cc12` (stereo not drawn) [Compound 355b, 2-(2-((5′-(1-aminoisoquinolin-7-yl)-2′,3′-dihydrospiro[cyclopentane-1,1′-inden]-3′-yl)oxy)phenyl)acetic acid] stands less than 1000 nM. For `CCOC(=O)N1CC[C@H](n2nc(COc3cccc(C4CC4)c3CC(=O)O)c3cc(-c4ccc5ccnc(N)c5c4)ccc32)C1` [Compound 356e, (S)-2-(2-((5-(1-aminoisoquinolin-7-yl)-1-(1-(ethoxycarbonyl)pyrrolidin-3-yl)-1H-indazol-3-yl)methoxy)-6-cyclopropylphenyl)acetic acid], the IC50 is less than 1000 nM. Under `CCOC(=O)N1CC[C@H](n2nc(COc3cccc(C4CC4)c3CC(=O)O)c3cc(-c4cccc5c(N)nccc45)ccc32)C1` [Compound 357b, (S)-2-(2-((5-(1-aminoisoquinolin-5-yl)-1-(1-(ethoxycarbonyl)pyrrolidin-3-yl)-1H-indazol-3-yl)methoxy)-6-cyclopropylphenyl)acetic acid] stands less than 1000 nM. Under `CC(C)OC(=O)N1CC[C@H](n2nc(COc3ccccc3CC(=O)O)c3cc(-c4ccc5ccnc(N)c5c4)ccc32)C1` [Compound 358c, (S)-2-(2-((5-(1-aminoisoquinolin-7-yl)-1-(1-(isopropoxycarbonyl)pyrrolidin-3-yl)-1H-indazol-3-yl)methoxy)phenyl)acetic acid] stands less than 1000 nM; under `CC(C)OC(=O)N1CC[C@H](n2nc(COc3ccccc3CC(=O)O)c3cc(-c4cccc5c(N)nccc45)ccc32)C1` [Compound 359b, (S)-2-(2-((5-(1-aminoisoquinolin-5-yl)-1-(1-(isopropoxycarbonyl)pyrrolidin-3-yl)-1H-indazol-3-yl)methoxy)phenyl)acetic acid], less than 1000 nM; under `CC(C)COC(=O)N1CC[C@H](n2nc(COc3ccccc3CC(=O)O)c3cc(-c4ccc5ccnc(N)c5c4)ccc32)C1` [Compound 360c, (S)-2-(2-((5-(1-aminoisoquinolin-7-yl)-1-(1-(isobutoxycarbonyl)pyrrolidin-3-yl)-1H-indazol-3-yl)methoxy)phenyl)acetic acid], less than 1000 nM. The figure for `CC(C)COC(=O)N1CC[C@H](n2nc(COc3ccccc3CC(=O)O)c3cc(-c4cccc5c(N)nccc45)ccc32)C1` [Compound 361b, (S)-2-(2-((5-(1-aminoisoquinolin-5-yl)-1-(1-(isobutoxycarbonyl)pyrrolidin-3-yl)-1H-indazol-3-yl)methoxy)phenyl)acetic acid] is less than 1000 nM; for `CC(C)OC(=O)N1CC[C@@H](n2nc(COc3ccccc3CC(=O)O)c3cc(-c4ccc5ccnc(N)c5c4)ccc32)C1` [Compound 362c, (R)-2-(2-((5-(1-aminoisoquinolin-7-yl)-1-(1-(isopropoxycarbonyl)pyrrolidin-3-yl)-1H-indazol-3-yl)methoxy)phenyl)acetic acid] it is less than 1000 nM; for `CC(C)OC(=O)N1CC[C@@H](n2nc(COc3ccccc3CC(=O)O)c3cc(-c4cccc5c(N)nccc45)ccc32)C1` [Compound 363b, (R)-2-(2-((5-(1-aminoisoquinolin-5-yl)-1-(1-(isopropoxycarbonyl)pyrrolidin-3-yl)-1H-indazol-3-yl)methoxy)phenyl)acetic acid] it is less than 1000 nM.
